Measured values from publication PMC10176470, “Engaging a Non-catalytic Cysteine Residue Drives Potent and Selective Inhibition of Caspase-6” (Journal of the American Chemical Society, 2023).

Biological target: proteins of HEK293T cells transiently overexpressing caspase-6 (Homo sapiens, UniProt P49591)
Format: cell-based
Conditions: exp_ref Probe; protein SARS (P49591); analysis C6

proteins of HEK293T cells transiently overexpressing caspase-6, sequence (P49591 whole entry, looked up): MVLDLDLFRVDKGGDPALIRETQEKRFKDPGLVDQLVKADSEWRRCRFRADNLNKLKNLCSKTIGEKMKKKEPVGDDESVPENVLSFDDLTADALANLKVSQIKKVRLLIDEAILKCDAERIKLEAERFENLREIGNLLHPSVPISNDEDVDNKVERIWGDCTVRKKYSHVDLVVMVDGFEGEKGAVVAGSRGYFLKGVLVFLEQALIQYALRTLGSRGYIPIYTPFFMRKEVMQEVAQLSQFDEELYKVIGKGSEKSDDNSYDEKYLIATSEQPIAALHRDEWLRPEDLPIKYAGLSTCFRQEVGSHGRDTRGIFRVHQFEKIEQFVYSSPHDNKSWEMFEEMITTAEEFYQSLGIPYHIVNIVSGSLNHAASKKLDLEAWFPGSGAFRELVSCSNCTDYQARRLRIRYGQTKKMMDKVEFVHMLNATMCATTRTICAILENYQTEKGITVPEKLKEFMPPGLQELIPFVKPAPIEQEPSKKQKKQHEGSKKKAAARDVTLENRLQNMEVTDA

## C#CCOc1ccc([C@@H]2C[C@@H](C(=O)Nc3ccc(OC(F)(F)F)cc3)CN(S(=O)(=O)C=C)C2)cc1 (relative stereo) [13-t]
  enrich.exp.med: 0.8697
